Measured values: paper PMC9011347, “Small-Molecule Inhibitors Targeting Lipolysis in Human Adipocytes” (Journal of the American Chemical Society, 2022)

Legend:
[1] = tested on: primary human omental adipocytes; experiment: Lipolysis in human omental adipocytes; assay type: cell-based; conditions: NG-497 40 µM
Protocol: Fig. S5: Effect of NG-497 on lipolysis in human omental adipocytes. Omental preadipocytes were obtained from Zen-Bio and differentiated into adipocytes in 96-well trays according to the manufacturer's instructions (OP-F-SL, ZenBio). Cells were then labeled with [9,10-3H] oleic acid (1µCi/well) in full medium for 12 h, washed, and preincubated for 1 h with NG-497 (40 µM) or DMSO (carrier) as a control. Subsequently, the medium was replaced with DMEM containing 2% FA-free BSA and basal as well as Forskolin-stimulated release of radioactivity was monitored in the presence or absence of NG-497. After a 4 h incubation period, cells were lysed in NaOH/SDS (0.3 M/0.1%) and cell-associated radioactivity was determined by liquid scintillation.
Cell-associated radioactivity at time-point 0 (pulse) was calculated as sum of the radioactivity detected in medium and cells after the 4 h chase. The release of fatty acids is shown as % of cell-associated radioactivity.
In the presence of Forskolin, cells lost ~ 20% of the
(b) Time course of FA release during the 4 h chase period. NG-497 reduced basal lipolysis by ~50% and extinguished Forskolin-stimulated lipolysis. Data are presented as mean ± S.D (n = 4). Statistical significance was determined via ANOVA followed by Bonferroni post hoc test (***, p < 0.001).
(§1) (1 picture or pasted object on this page, not shown here)

HSL = HSL (Homo sapiens, UniProt Q05469); experiment: Off-target lipid hydrolase assay, Expi293 lysates, p-NPV substrate; assay type: biochemical; conditions: NG-497 100 µM, substrate pNPV
Protocol: (§2) Fig. S3: Investigation of off-target effects of NG-497 on structurally and functionally related lipid hydrolases. (a) PNPLA1-dependent formation of acylceramides was monitored in a cell-based assay in HEK293T cells. Experiments were performed in the presence or absence of NG-497 (40 µM) and the non-selective lipase inhibitor Orlistat (40 µM). Orlistat, but not NG-497, inhibited PNPLA1/CGI-58-dependent ω-O-acylceramide formation. (b-h) Enzymes were overexpressed in Expi293 cells and cell lysates were used as source of enzymatic activity. Cell lysates were incubated with the indicated substrates 1-oleoyl phosphatidylcholine (LPC), di-oleoyl phosphatidic acid (PA), di-octanoyl phosphatidylglycerol (PG), or para-nitrophenylvalerate (pNPV). Experiments were performed in the presence or absence of NG-497 (100 µM) and the formation of reaction products was monitored. Cell lysates of LacZ-transfected cells were used to detect basal cellular activity. As positive controls, enzymes were inactivated with lipase inhibitors Orlistat (40 µM), R-BEL (10 µM), KLH-45 (20 nM), HSLi (10 µM), or PMSF (10µM).
(§3) Data were calculated relative to the basal activity detected in LacZ-transfected controls. (i) Activity of purified human pancreatic lipase in the presence or absence of NG-497 (100 µM) and Orlistat (20 µM) using radiolabeled triolein as substrate. (j) Inhibition of LPL and HL by NG-497 (100 µM) was investigated in human post-heparin plasma using radiolabeled triolein as substrate.
(§4) LPL activity was inhibited using an anti-LPL antibody. All data are presented as mean ± S.D. Statistical significance was determined via ANOVA followed by Bonferroni post hoc test ( ***, p < 0.001).
as §1
(§5) Co-immunoprecipitation. […]
(§6) Analysis of toxicity in HepG2 hepatocytes. […] Release of LDH into the medium was analyzed using the Cytotoxicity Detection Kit PLUS (LDH) (MilliporeSigma) according to the manufacturer’s instructions. Cytotoxicity was calculated as relative LDH release as compared to fully lysed cells. […]

[2] = target: T1, carboxylesterase 2 (CES2) (Homo sapiens, UniProt O00748); experiment: as above; assay type: biochemical; conditions: NG-497 100 µM, substrate pNPV
T1 construct: made in house; host or cells: Expi293 cells, lysate
Protocol: as §2, §3, §4, §1, §5, §6

[3] = target: T2, DDHD domain-containing protein 2 (DDHD2) (Homo sapiens, UniProt O94830); experiment: as above; assay type: biochemical; conditions: NG-497 100 µM, substrate pNPV
T2 construct: made in house; host or cells: Expi293 cells, lysate
Protocol: as §2, §3, §4, §1, §5, §6

T1 sequence (O00748 27-559): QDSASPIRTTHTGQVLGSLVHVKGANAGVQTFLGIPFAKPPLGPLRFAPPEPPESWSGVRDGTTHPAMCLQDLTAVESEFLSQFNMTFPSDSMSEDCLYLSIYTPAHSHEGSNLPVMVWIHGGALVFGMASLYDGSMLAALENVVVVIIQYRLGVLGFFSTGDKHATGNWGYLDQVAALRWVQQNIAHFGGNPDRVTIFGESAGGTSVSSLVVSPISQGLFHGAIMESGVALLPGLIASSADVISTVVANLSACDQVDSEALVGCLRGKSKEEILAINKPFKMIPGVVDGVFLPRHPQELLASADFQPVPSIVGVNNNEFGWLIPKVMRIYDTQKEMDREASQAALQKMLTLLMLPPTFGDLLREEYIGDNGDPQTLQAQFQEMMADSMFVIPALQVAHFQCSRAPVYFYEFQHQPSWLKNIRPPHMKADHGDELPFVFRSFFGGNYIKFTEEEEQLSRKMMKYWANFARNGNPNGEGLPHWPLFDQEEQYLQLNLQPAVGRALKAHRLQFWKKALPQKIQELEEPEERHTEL
HSL, sequence (Q05469 302-1076 limits assumed): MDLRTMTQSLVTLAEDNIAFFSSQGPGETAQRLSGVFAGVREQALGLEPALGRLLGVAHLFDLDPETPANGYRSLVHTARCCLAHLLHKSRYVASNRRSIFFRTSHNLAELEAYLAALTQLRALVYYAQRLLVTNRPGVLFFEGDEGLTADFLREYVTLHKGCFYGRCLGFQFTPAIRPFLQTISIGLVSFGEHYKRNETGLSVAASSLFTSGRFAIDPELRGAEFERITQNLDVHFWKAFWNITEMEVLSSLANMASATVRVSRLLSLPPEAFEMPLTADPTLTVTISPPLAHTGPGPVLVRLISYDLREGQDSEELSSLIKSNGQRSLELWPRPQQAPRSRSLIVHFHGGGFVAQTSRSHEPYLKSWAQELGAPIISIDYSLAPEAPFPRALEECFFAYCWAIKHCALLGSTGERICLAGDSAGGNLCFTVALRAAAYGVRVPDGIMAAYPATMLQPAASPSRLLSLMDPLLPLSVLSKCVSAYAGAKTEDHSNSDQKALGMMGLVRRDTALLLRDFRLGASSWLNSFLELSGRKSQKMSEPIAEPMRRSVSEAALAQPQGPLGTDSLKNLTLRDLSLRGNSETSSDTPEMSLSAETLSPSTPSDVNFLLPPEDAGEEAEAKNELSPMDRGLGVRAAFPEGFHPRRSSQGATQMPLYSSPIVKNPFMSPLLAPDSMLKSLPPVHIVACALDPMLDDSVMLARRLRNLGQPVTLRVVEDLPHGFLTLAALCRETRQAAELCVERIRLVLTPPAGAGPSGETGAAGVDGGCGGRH
T2 sequence (O94830 whole entry, the tested form may be a part): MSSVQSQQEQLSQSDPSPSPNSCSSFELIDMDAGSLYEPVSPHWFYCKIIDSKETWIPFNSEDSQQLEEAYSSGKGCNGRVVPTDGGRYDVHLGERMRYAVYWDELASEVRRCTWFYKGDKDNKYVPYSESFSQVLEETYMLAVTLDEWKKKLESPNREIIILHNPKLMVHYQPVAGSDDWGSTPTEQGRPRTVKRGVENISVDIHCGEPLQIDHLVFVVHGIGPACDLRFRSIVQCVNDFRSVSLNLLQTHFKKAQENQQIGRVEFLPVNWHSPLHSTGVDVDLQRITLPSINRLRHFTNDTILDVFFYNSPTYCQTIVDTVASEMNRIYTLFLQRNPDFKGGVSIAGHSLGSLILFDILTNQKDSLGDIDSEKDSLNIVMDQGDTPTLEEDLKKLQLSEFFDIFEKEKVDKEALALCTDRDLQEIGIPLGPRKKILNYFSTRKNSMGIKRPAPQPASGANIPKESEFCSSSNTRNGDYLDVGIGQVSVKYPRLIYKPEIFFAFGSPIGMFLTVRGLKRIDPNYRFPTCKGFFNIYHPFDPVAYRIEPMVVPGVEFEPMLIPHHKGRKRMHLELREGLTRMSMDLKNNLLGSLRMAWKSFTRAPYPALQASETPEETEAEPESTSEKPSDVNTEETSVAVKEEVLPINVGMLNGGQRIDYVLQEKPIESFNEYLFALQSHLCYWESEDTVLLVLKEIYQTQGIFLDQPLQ

CCOc1ccc(-c2cc(OC)cc(C(=O)OC(C)C)n2)cc1 [NG-497]
Forskolin-induced loss of cell-associated radiolabel (~ 20%) ([1]; 4 h): completely prevented
Forskolin-induced TAG degradation and FA release (Forskolin-stimulated lipolysis) ([1]; 4 h chase): extinguished
reduction of basal lipolysis ([1]; 4 h chase): ~ 50%
inhibition of HSL (HSL): did not observe inhibition
inhibition of CES2 [2]: did not observe inhibition
inhibition of DDHD2 [3]: did not observe inhibition
